Patent publication US7964599B2, “Therapeutic compounds” (Allergan, Inc., priority 2008, dated 2011)

How the values were obtained:
Type in all cases: in vivo
[1] = system: laser-induced hypertensive monkeys; experiment: Intraocular pressure reduction in laser-induced hypertensive monkeys; details: change from baseline
Method: [The source words this procedure for another organism and reports this organism under the same test.] (§1) Compounds such as those described in the above are tested in vivo to measure its ability to reduce intraocular pressure. Compound 1 is tested in normotensive dogs.

[2] = system: normotensive dogs; experiment: Intraocular pressure reduction in normotensive dogs; details: change from baseline
Method: as §1

[3] = system: lashes and adjacent hairs of patients; experiment: Eyelash/hair growth observed in glaucoma patients treated in one eye; details: glaucoma patient treated in only one eye
From the text: In the course of treating patients having glaucoma, treatment may only be appropriate in one eye. […] The lash appearance on the lids of the treated eyes would have appeared quite attractive if it represented a bilateral phenomenon. As a result of its asymmetric nature, the long lashes on one side could be construed as disturbing from a cosmetic standpoint. A systemic examination was preformed as a result of the asymmetric phenomenon. It soon became apparent that this altered appearance was not an isolated finding. […] Definite differences could be identified to varying degrees in the lashes and adjacent hairs of all patients who were taking the drug on a unilateral basis for longer than 6 months.
The changes in the lashes were apparent on gross inspection in several patients once attention was focused on the issue. In those with light colored hair and lashes, the differences were only seen easily with the aid of the high magnification and lighting capabilities of the slit lamp biomicroscope. In the course of glaucoma follow-up examination, attention is generally immediately focused on the eye itself. As a result of the high power magnification needed only one eye is seen at a time and the eye is seen at a high enough power that the lashes are not in focus. […]

| Compound | IOP [1] | intraocular pressure (IOP) [2] | lash appearance in treated eye versus non-treated eye [3] |
| --- | --- | --- | --- |
| CCCCCC(=O)c1ccc([C@H]2C(=O)C[C@@H](Cl)[C@@H]2C/C=C\CCCC(=O)OCCN2CCOCC2)cc1 [Compound 5] | decreases from baseline | decreases from baseline | – |
| CCCCCC(O)c1ccc([C@H]2C(O)C[C@@H](Cl)[C@@H]2C/C=C\CCCC(=O)OCCN2CCOCC2)cc1 (stereo partly drawn) [Compound 7] | decreases from baseline | decreases from baseline | – |
| (Z)-7-[(1R,2S,3R,5R)-5-Chloro-2-(4-hexanoyl-phenyl)-3-hydroxy-cyclopentyl]-hept-5-enoic acid [Compound 3] | decreases from baseline | decreases from baseline | – |
| CCCCCC(=O)c1ccc([C@H]2C(O)C[C@@H](Cl)[C@@H]2C/C=C\CCCC(=O)OCCN2CCOCC2)cc1 (stereo partly drawn) [Compound 8] | decreases from baseline | decreases from baseline | – |
| (Z)-7-[(1R,2S,3R,5R)-5-Chloro-2-(4-hexanoyl-phenyl)-3-hydroxy-cyclopentyl]-hept-5-enoic acid methyl ester [Compound 2] | decreases from baseline | decreases from baseline | – |
| (Z)-7-{(1R,2S,3R,5R)-5-Chloro-3-hydroxy-2-[4-(1-hydroxy-hexyl)-phenyl]-cyclopentyl}-hept-5-enoic acid methyl ester [Compound 1] | decreases from baseline | decreases from baseline | – |
| CCNC(=O)CCC/C=C\C[C@@H]1[C@@H](/C=C/[C@@H](O)CCc2ccccc2)[C@H](O)C[C@@H]1O [bimatoprost] | – | – | longer, thicker, and fuller |
| CCCCCC(O)c1ccc([C@H]2C(=O)C[C@@H](Cl)[C@@H]2C/C=C\CCCC(=O)OCCN2CCOCC2)cc1 (stereo partly drawn) [Compound 6] | decreases from baseline | decreases from baseline | – |
